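Test compounds were applied to cells in 96-well plates for 48 hours at 5 doses. TGI marks complete inhibition of growth.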

Our source for the TGI values is PubChem BioAssay (NCI).

Some test systems named below: SK-MEL-2 melanoma; NCI-H460 lung; T-47D breast; IGROV1 ovarian; HL-60(TB) leukemia; RXF 393 renal; CCRF-CEM leukemia; RPMI-8226 leukemia; SN12C renal; 786-0 renal.
Holding throughout (test): growth of human tumour cells (NCI), 48 h

Take `CN1C2CCC1C(CO)C(=O)C2` (stereo not drawn): the TGI is > 100 µM in the test on SK-MEL-2 melanoma; > 100 µM in the test with NCI-H460 lung; 48.1 µM in the test with T-47D breast; > 100 µM in the test on IGROV1 ovarian; 26.2 µM with HL-60(TB) leukemia; > 100 µM in the test on RXF 393 renal. Besides, the TGI is 27.4 µM with CCRF-CEM leukemia and 54.1 µM with RPMI-8226 leukemia.

Consider `Brc1ccc(/C(N=N/C(=N\Sc2ccccc2)c2ccc(Br)cc2)=N/Sc2ccccc2)cc1`, for which the TGI in the test with SN12C renal, with SK-MEL-2 melanoma, in the test on 786-0 renal, with NCI-H460 lung, in the test on T-47D breast and in the test on IGROV1 ovarian was > 100 µM each time. Further, the TGI in the test with HL-60(TB) leukemia, in the test on RXF 393 renal, with CCRF-CEM leukemia and in the test on RPMI-8226 leukemia was > 100 µM each time.

Take `CC(=O)N=S(NC(=O)c1ccc(C)cc1)C(Cl)(Cl)Cl` (stereo not drawn): the TGI is > 100 µM in the test on SN12C renal; 33.1 µM with 786-0 renal; > 100 µM in the test on NCI-H460 lung; > 100 µM with T-47D breast; 93.4 µM in the test with IGROV1 ovarian; 26.9 µM in the test on HL-60(TB) leukemia. The values for the TGI in the test with RXF 393 renal, in the test on CCRF-CEM leukemia and with RPMI-8226 leukemia were > 100 µM, 51.5 µM and > 100 µM, respectively.

As to `COc1ccc(C(=O)/C=C/c2ccc(OCCCCCCCCCCOc3ccc(/C=C/C(=O)c4ccc(OC)c(OC)c4)cc3)cc2)c(OC)c1`, the TGI with SN12C renal, in the test with SK-MEL-2 melanoma, with 786-0 renal, in the test with NCI-H460 lung, in the test with T-47D breast and with IGROV1 ovarian was > 100 µM in each case. In addition, the TGI with HL-60(TB) leukemia, in the test with RXF 393 renal, with CCRF-CEM leukemia and in the test on RPMI-8226 leukemia was > 100 µM each time.

As to `Nc1cc2nc(-c3ccccc3)cn2cn1`, the TGI in the test with SN12C renal, with SK-MEL-2 melanoma, with 786-0 renal, in the test with NCI-H460 lung, in the test with T-47D breast and in the test on HL-60(TB) leukemia was > 100 µM each time. The TGI in the test with RXF 393 renal, in the test on CCRF-CEM leukemia and with RPMI-8226 leukemia was > 100 µM in each case.

`CC(C)(C)[Si](C)(C)OC1CCOC1(O)c1ccccn1` (stereo not drawn): the TGI in the test on SN12C renal, in the test with SK-MEL-2 melanoma, in the test with 786-0 renal, in the test on NCI-H460 lung, in the test with T-47D breast and in the test on IGROV1 ovarian was > 100 µM each time. Also, the TGI with HL-60(TB) leukemia, in the test with RXF 393 renal, with CCRF-CEM leukemia and in the test with RPMI-8226 leukemia was > 100 µM in each case.

As to `CN(C)CN1C(=O)/C(=N\n2c(-c3ccncc3)n[nH]c2=S)c2ccccc21`, the TGI was > 100 µM in the test with SN12C renal; 50.5 µM in the test with SK-MEL-2 melanoma; 41.6 µM in the test on 786-0 renal; > 100 µM in the test with NCI-H460 lung; > 100 µM in the test with T-47D breast; > 100 µM with IGROV1 ovarian. Moreover, the TGI in the test with HL-60(TB) leukemia is 37 µM; with RXF 393 renal, 32.4 µM; in the test with CCRF-CEM leukemia, > 100 µM.

On to `O=C1CCC(CCc2nc3ccccc3[nH]2)(c2ccccc2)C(=O)N1` (stereo not drawn), for which the TGI in the test on SN12C renal, in the test with SK-MEL-2 melanoma, in the test on 786-0 renal, in the test on NCI-H460 lung, in the test on T-47D breast and in the test on IGROV1 ovarian was > 100 µM throughout. The TGI in the test with HL-60(TB) leukemia, in the test on RXF 393 renal, in the test with CCRF-CEM leukemia and in the test on RPMI-8226 leukemia was > 100 µM each time.

On to `Brc1ccc2[nH]cc(-c3csc(-c4c[nH]c5ccc(Br)cc45)n3)c2c1`, for which the TGI in the test on SN12C renal was found to be 10.3 µM; in the test on SK-MEL-2 melanoma, 3.81 µM; in the test with 786-0 renal it was 3.49 µM; in the test with NCI-H460 lung, 3.43 µM; with T-47D breast, 12.2 µM; in the test on IGROV1 ovarian, 4.6 µM. In addition, the TGI in the test with HL-60(TB) leukemia was found to be 12.7 µM; in the test with RXF 393 renal, 6.13 µM; in the test with CCRF-CEM leukemia it was 3.93 µM; with RPMI-8226 leukemia it was 3.4 µM.

For the compound `C[C@@](Br)(C(=O)O)[C@H](Br)C(=O)O`, the TGI with SN12C renal, with 786-0 renal, in the test with NCI-H460 lung, in the test with T-47D breast, with IGROV1 ovarian and in the test on HL-60(TB) leukemia was > 100 µM each time. The TGI in the test with RXF 393 renal, in the test with CCRF-CEM leukemia and in the test with RPMI-8226 leukemia was > 100 µM throughout.

For the compound `CC12CCC(=O)[C@@]1(C)CCCC2=O` (stereo partly drawn), the TGI in the test on SN12C renal, in the test on SK-MEL-2 melanoma, in the test with 786-0 renal, in the test on NCI-H460 lung, in the test with T-47D breast and with IGROV1 ovarian was > 100 µM in each case. For the same compound, the TGI with HL-60(TB) leukemia, in the test on RXF 393 renal and in the test with CCRF-CEM leukemia was > 100 µM throughout.

As for `COc1cccc(Nc2nc3c([nH]2)c(=O)n(C)c(=O)n3C)c1`, the TGI in the test with SN12C renal, in the test with 786-0 renal, in the test on T-47D breast, in the test on IGROV1 ovarian, with HL-60(TB) leukemia and in the test on RXF 393 renal was > 10 µM each time. The TGI in the test with CCRF-CEM leukemia and in the test with RPMI-8226 leukemia was > 10 µM in each case.

As to `CCOC(=O)C(NC(=O)CC)(Nc1ccccc1F)C(F)(F)F` (stereo not drawn), the TGI in the test on SN12C renal, in the test on SK-MEL-2 melanoma, with NCI-H460 lung, with T-47D breast, in the test with IGROV1 ovarian and in the test on HL-60(TB) leukemia was > 100 µM throughout. The TGI in the test with RXF 393 renal and with RPMI-8226 leukemia was > 100 µM each time.

Turning to `O=C1C=CC(=O)c2c(O)c(N3CCN(c4ncccn4)CC3)c(Cl)c(O)c21`, the TGI in the test on SN12C renal is 3.43 µM; with SK-MEL-2 melanoma it was 3.47 µM; with 786-0 renal, 3.1 µM; in the test on NCI-H460 lung, > 47.6 µM; in the test with T-47D breast it was 5.7 µM; in the test on IGROV1 ovarian, 3.43 µM. Besides, the TGI in the test with HL-60(TB) leukemia was 0.766 µM; with RXF 393 renal, 3.51 µM; in the test on CCRF-CEM leukemia it was 4.24 µM.

As for `CCOC(=O)c1c(-c2ccc(OC)cc2)c(C#N)c(=S)n(C2OC(CO)C(O)C(O)C2O)c1C` (stereo not drawn), the TGI with SN12C renal, in the test on SK-MEL-2 melanoma, in the test with 786-0 renal, with T-47D breast, in the test with IGROV1 ovarian and with HL-60(TB) leukemia was > 100 µM throughout. Also, the TGI in the test on RXF 393 renal and with CCRF-CEM leukemia was > 100 µM in each case.

Consider `Cn1c(=O)c2[nH]c(Nc3cccc(Cl)c3)nc2n(C)c1=O`, for which the TGI in the test on SN12C renal is > 10 µM; with 786-0 renal, > 10 µM; in the test with T-47D breast it was 8.72 µM; in the test on IGROV1 ovarian, > 10 µM; in the test with HL-60(TB) leukemia, > 10 µM; in the test with RXF 393 renal, 8.76 µM. For the same compound, the TGI in the test with CCRF-CEM leukemia and in the test with RPMI-8226 leukemia was > 10 µM each time.

As for `CC(=O)Nc1ccc2c(c1)nc1c3ccccc3ccn21`, the TGI in the test with SN12C renal, with SK-MEL-2 melanoma, with 786-0 renal, with NCI-H460 lung, with T-47D breast and in the test on IGROV1 ovarian was > 100 µM in each case. The TGI in the test with HL-60(TB) leukemia, in the test with RXF 393 renal and with CCRF-CEM leukemia was > 100 µM in each case.

In the case of `CC1=NN(c2cccc(Cl)c2)C2(C1=Cc1ccc(N(C)C)cc1)C(Cl)C(=O)N2c1nc2ccccc2s1` (stereo not drawn), the TGI in the test with SK-MEL-2 melanoma, in the test on 786-0 renal, with NCI-H460 lung, with T-47D breast, in the test on IGROV1 ovarian and in the test with HL-60(TB) leukemia was > 100 µM each time. Moreover, the TGI is 46 µM in the test on RXF 393 renal, > 100 µM in the test with CCRF-CEM leukemia and > 100 µM in the test on RPMI-8226 leukemia.

With `CC1CCc2sc3[nH]c(=S)n(C)c(=O)c3c2C1` (stereo not drawn), the TGI in the test on SN12C renal, with SK-MEL-2 melanoma, in the test with 786-0 renal, in the test with NCI-H460 lung, in the test on T-47D breast and with IGROV1 ovarian was > 100 µM throughout. Moreover, the TGI was 26.2 µM in the test on HL-60(TB) leukemia, > 100 µM in the test on RXF 393 renal and > 100 µM in the test with RPMI-8226 leukemia.

For the compound `CCOP(=O)(COCCn1nc(Br)c(=O)[nH]c1=O)OCC`, the TGI in the test with SN12C renal, in the test on SK-MEL-2 melanoma, with NCI-H460 lung, with T-47D breast, in the test on IGROV1 ovarian and with HL-60(TB) leukemia was > 100 µM each time. The TGI with RXF 393 renal, in the test with CCRF-CEM leukemia and with RPMI-8226 leukemia was > 100 µM each time.

With `CN(C)C(=O)/N=C1\SC(=Nc2ccccc2)C(=Nc2ccccc2)N1c1ccc([N+](=O)[O-])cc1`, the TGI with SN12C renal, with SK-MEL-2 melanoma, in the test with NCI-H460 lung, in the test on T-47D breast, in the test on IGROV1 ovarian and with HL-60(TB) leukemia was > 100 µM in each case. Besides, the TGI in the test on RXF 393 renal, in the test on CCRF-CEM leukemia and in the test on RPMI-8226 leukemia was > 100 µM throughout.

`COc1cc2c3cc1Oc1cc(ccc1O)C[C@@H]1c4c(cc(OC)c(O)c4Oc4ccc(cc4)C[C@@H]3[N+](C)(C)CC2)CC[N+]1(C)C`: the TGI is > 100 µM in the test with SN12C renal; > 100 µM with SK-MEL-2 melanoma; > 100 µM in the test on 786-0 renal; > 100 µM in the test with NCI-H460 lung; 71.2 µM with T-47D breast; > 100 µM in the test with IGROV1 ovarian. Moreover, the TGI in the test on HL-60(TB) leukemia was > 100 µM; with RXF 393 renal, 47 µM; in the test with RPMI-8226 leukemia it was > 100 µM.
